Experimental data as given in paper PMC9368981, “The γ-Core Motif Peptides of AMPs from Grasses Display Inhibitory Activity against Human and Plant Pathogens” (International Journal of Molecular Sciences, 2022).
Where a SMILES comes first, the peptide text is derived from it.

What was measured:
[1] = test system: Cryptococcus neoformans VKM Y-2755; assay type: cell-based; details: inhibition curves (Figure 4)
Description: (§1) The antimicrobial activity of synthetic peptides was tested against a panel of human and plant pathogens. Among them were the yeasts Candida albicans VKM Y-2994 and Cryptococcus neoformans VKM Y-2755, the plant pathogenic bacteria Clavibacter michiganensis subsp. michiganensis VKM Ac-1403, Pseudomonas savastanoi pv. savastanoi VKM B-1546 and Pectobacterium carotovorum subsp. carotovorum VKM B-1247, and four Fusarium species (F. oxysporum VKM F-137, F. culmorum VKM F-2303, F. solani VKM F-142 and F. verticillioides VKM F-670), which cause diseases in plants and humans. The antimicrobial activity was first measured at the peptide concentration of 300 µM (Figure 3).
(§2) The antimicrobial activity of synthetic peptides was tested against the yeasts Candida albicans VKM Y-2994 and Cryptococcus neoformans VKM Y-2755, the bacteria Pseudomonas savastanoi pv. savastanoi VKM B-1546, Pectobacterium carotovorum subsp. carotovorum VKM B-1247 and Clavibacter michiganensis subsp. michiganensis VKM Ac-1403, and four Fusarium species: F. culmorum VKM F-2303, F. oxysporum VKM F-137, F. solani VKM F-142 and F. verticillioides VKM F-670. All cultures were obtained from the All-Russian Collection of Microorganisms (VKM). The details of the production and storage of cultures of microorganisms used in this study are described at the VKM Home page. Antimicrobial assays were accomplished according to the procedure described earlier. In short, yeasts were grown on the YPD-P medium and the bacteria P. carotovorum and Cl. michiganensis were cultured on a modified YPD-P medium. The Fusarium fungi were grown on potato dextrose agar at 25 °C for 7–8 days, and spores were washed off from the surface of the mycelia with sterile, distilled water. The antimicrobial activity of the peptides was measured in immunoassay microtiter plates according to the protocol of Broekaert et al.. With yeasts and bacteria, each well contained 10 µL of the tested peptide solution (final concentrations of 10–300 µM) in water, 80 µL of the medium and 10 µL of the microbial suspension. The plates were incubated at 30 °C for 24 h, and the absorbance of the suspension was measured on an Efos 9305 spectrophotometer (Sapphire, Moscow, Russia) at 594 nm. For Fusarium species, the wells of a microtiter plate were filled with 90 µL of the fungal spore suspension in half-strength potato dextrose broth at a concentration of 2000–3000 spores in 100 µL and 10 µL of aqueous solutions of peptides at final concentrations of 10–300 µM. After 38 h of incubation, the absorbance was recorded at 595 nm on a FilterMax F5 Multi-Mode Microplate Reader (Molecular Devices, San Jose, CA, USA). Antimicrobial activity is expressed in IC50 values, which show the concentration necessary for 50% inhibition of the pathogen growth; this was determined from a graph showing the activity dependence on peptide concentration.
(§3) For each pathogen, experiments on the peptide antimicrobial activity evaluation were carried out in triplicate per treatment. Mean values, standard deviations (SD), and the significance of differences (p ≤ 0.05) of the means between treatments and controls (t-test for independent variables) were determined using STATISTICA v. 6.1 software (StatSoft Inc., Tulsa, OK, USA).

[2] = test system: Pseudomonas savastanoi pv. savastanoi VKM B-1546; assay type: cell-based; details: 300 µM peptide; 30 °C, 24 h, absorbance 594 nm; vs control without peptide; triplicate, mean
Description: as §1, §2, §3

[3] = test system: Clavibacter michiganensis subsp. michiganensis VKM Ac-1403; assay: Growth inhibition of Cl. michiganensis in microtiter plates; assay type: cell-based; details: inhibition curves (Figure 4)
Description: as §1
The antimicrobial activity of synthetic peptides was tested against the yeasts Candida albicans VKM Y-2994 and Cryptococcus neoformans VKM Y-2755, the bacteria Pseudomonas savastanoi pv. savastanoi VKM B-1546, Pectobacterium carotovorum subsp. carotovorum VKM B-1247 and Clavibacter michiganensis subsp. michiganensis VKM Ac-1403, and four Fusarium species: F. culmorum VKM F-2303, F. oxysporum VKM F-137, F. solani VKM F-142 and F. verticillioides VKM F-670. All cultures were obtained from the All-Russian Collection of Microorganisms (VKM). […] The antimicrobial activity of the peptides was measured in immunoassay microtiter plates according to the protocol of Broekaert et al.. […] The plates were incubated at 30 °C for 24 h, and the absorbance of the suspension was measured on an Efos 9305 spectrophotometer (Sapphire, Moscow, Russia) at 594 nm. […] After 38 h of incubation, the absorbance was recorded at 595 nm on a FilterMax F5 Multi-Mode Microplate Reader (Molecular Devices, San Jose, CA, USA). […]
as §3, with “6.1 software (StatSoft Inc., Tulsa, OK, USA).” left out

Cr. neoformans cells = assay: Propidium iodide staining, fluorescence microscopy; assay type: cell-based, Cryptococcus neoformans; details: peptide 300 µM, 30 °C, 1 h, 0.03 mM PI 15 min
Description: (§4) Their ability to disturb the integrity of pathogen membranes was assayed by staining with propidium iodide of C. albicans and Cr. neoformans cells preliminarily incubated with the peptides. The results were visualized by fluorescent microscopy and quantified by flow cytometry (Figure 5, Figure 6 and Figure 7).
(§5) Staining of yeast cells with propidium iodide in the presence of the γ-core peptides was carried out according to the protocol described earlier. C. albicans or Cr. neoformans cells (24 h culture in YPD-P at a cell concentration of 2 × 10^8/mL) were incubated with the peptide at a concentration of 300 µM at 30 °C for 1 h. After incubation, 1 mL of the cells was stained with 0.03 mM propidium iodide (Sigma, St. Louis, MO, USA). The staining proceeded for 15 min at 30 °C. The fluorescence was recorded on an AXIO Imager A1 fluorescence microscope (ZEISS, Göttingen, Germany) using a Zeiss filter set 56 HE.

C. albicans cells = assay: Propidium iodide staining, fluorescence microscopy; assay type: cell-based, Candida albicans; details: peptide 300 µM, 30 °C, 1 h, 0.03 mM PI 15 min
Description: as §4, §5

Compound	Inhibition of Cr. neoformans at 50 µM ([1]; peptide 50 µM)	Pathogen inhibition, % (Ps. savastanoi) [2]	Inhibition of Cl. michiganensis at 100 µM ([3]; peptide 100 µM)	Inhibition of Cr. neoformans at the highest tested concentration ([1]; highest tested concentration (300 µM)) [%]	Inhibition of Cl. michiganensis at the highest tested concentration ([3]; highest tested concentration of 300 µM) [%]	Membrane permeabilization of Cr. neoformans cells (PI staining) (Cr. neoformans cells)	Membrane permeabilization of C. albicans cells (PI staining) (C. albicans cells)
C[C@H](NC(=O)[C@H](CCCNC(=N)N)NC(=O)[C@H](CCCCN)NC(=O)[C@H](CS)NC(=O)[C@H](Cc1ccccc1)NC(=O)[C@H](CS)NC(=O)[C@H](CCCCN)NC(=O)[C@H](CCCNC(=N)N)NC(=O)[C@H](C)NC(=O)[C@H](Cc1ccccc1)NC(=O)[C@H](CC(N)=O)NC(=O)[C@H](Cc1c[nH]cn1)NC(=O)[C@@H](NC(=O)[C@H](Cc1c[nH]cn1)NC(=O)[C@H](CS)NC(=O)[C@H](CCC(=O)O)NC(=O)CN)[C@@H](C)O)C(=O)N[C@@H](CS)C(=O)O [DEFL1-36_65-82] (H-GECHTHNFARKCFCKRAC-OH; N-terminus and C-terminus assumed)	complete inhibition	failed to suppress	complete inhibition	–	–	–	–
C[C@H](N)C(=O)N[C@@H](CS)C(=O)N1CCC[C@H]1C(=O)NCC(=O)N[C@@H](C)C(=O)N[C@@H](CS)C(=O)N1CCC[C@H]1C(=O)N[C@@H](C)C(=O)N1CCC[C@H]1C(=O)NCC(=O)NCC(=O)N[C@@H](CO)C(=O)N[C@@H](Cc1ccc(O)cc1)C(=O)N[C@H](C(=O)N[C@@H](CC(N)=O)C(=O)N[C@@H](CCCNC(=N)N)C(=O)NCC(=O)N[C@@H](CS)C(=O)N[C@@H](CCC(N)=O)C(=O)N[C@@H](CCCCN)C(=O)N[C@@H](CCCCN)C(=O)N[C@@H](Cc1ccc(O)cc1)C(=O)N[C@@H](CCC(N)=O)C(=O)N[C@@H](CS)C(=O)N[C@@H](CCCNC(=N)N)C(=O)O)[C@@H](C)O [DEFL4-20_86-110] (H-ACPGACPAPGGSYTNRGCQKKYQCR-OH; N-terminus and C-terminus assumed)	–	–	–	95	91	induced membrane permeabilization	induced membrane permeabilization
